{"source": "patent EP2338876A1", "about": "“Tamsulosin adipate for pharmaceutical use” (LEK Pharmaceuticals d.d., priority 2009, dated 2011)", "type_in_all_cases": "physicochemical", "key": {"[1]": {"test": "Solubility in lower alcohols compared with tamsulosin hydrochloride", "details": "compared with commercially available tamsulosin hydrochloride", "text": "The adipate forms of tamsulosin prepared according to the present invention have favourable solubility properties. […] This property could be an indicator for better interactions with less polar surfaces (e.g. lipid barriers) and allows more homogeneous preparation of pharmaceutical preparations in which tamsulosin should be homogenously mixed with lipophilic excipients (such as in preparation of transdermal dosage forms). The adipate anion has been shown physiologically acceptable. The tamsulosin adipate has therefore appropriate properties for smooth interaction with hydrophilic and lipophilic surfaces."}, "[2]": {"test": "Solubility in water, relative between solid forms", "details": "60-100 ml of water per gram of the salt, room temperature; compared with anhydrous or amorphous tamsulosin adipate", "experimental": "In another embodiment of the invention tamsulosin adipate dihydrate can be prepared also from water solutions from more soluble forms of tamsulosin adipate (anhydrous or amorphous). Depending on kinetic factors two polymorphs of tamsulosin adipate dihydrate can be obtained. In another embodiment tamsulosin adipate (anhydrous or amorphous) is dissolved in a small amount of water, preferably in 60-100 ml of water per gram of the salt, most preferably in 80-90 ml per gram, preferably at room temperature. Less soluble dihydrate spontaneously precipitates from the solution, yielding tamsulosin adipate dihydrate, characterized by the peaks at about 2θ= 10.2, 10.5, 13.5, 15.5, 16.3, 21.1, 21.9° 24.3, 25.2, 28.3 and 35.9° particularly characteristic peaks are 15.5, 21.9°, 28.3, and 35.9°."}, "[3]": {"test": "Solid-state stability at higher temperature", "experimental": "Tamsulosin adipate dihydrate from Example 9 (1.0 g), is heated at 80 °C for 24 h to give a glassy solid which is crushed and homogenised."}, "[4]": {"test": "Solid-state stability at ambient and at low relative humidity", "experimental": "Tamsulosin adipate dihydrate from Example 9 (1.0 g), is stayed in an open dish in an airtight chamber at temperature of 25 °C and relative humidity of below 10 % (achieved by means of dry desiccant) for 3 days."}}, "data": [{"smiles": "CCOc1ccccc1OCCN[C@H](C)Cc1ccc(OC)c(S(N)(=O)=O)c1", "note": "[Tamsulosin adipate, tamsulosin adipate]", "values": [{"measurement": "solubility in lower alcohols", "setting": "[1]", "value": "more soluble in lower alcohols, than the commercially available tamsulosin hydrochloride"}]}, {"smiles": "CCOc1ccccc1OCCN[C@H](C)Cc1ccc(OC)c(S(N)(=O)=O)c1", "note": "[Tamsulosin adipate dihydrate, tamsulosin adipate dihydrate form A]", "values": [{"measurement": "solubility in water relative to other forms", "setting": "[2]", "value": "Less soluble"}, {"measurement": "solid form after heating (XRPD)", "setting": "[3]; 80 °C for 24 h", "value": "amorphous material with traces of anhydrous crystalline form"}, {"measurement": "stability at higher temperatures", "setting": "[3]; preferably above 70 °C, most preferably above 80 °C", "value": "loses water"}, {"measurement": "stability in extremely dry conditions", "setting": "[4]; below 20 % relative humidity, preferably below 10 %", "value": "loses water"}, {"measurement": "stability under normal ambient conditions", "setting": "[4]; normal ambient conditions", "value": "stable"}, {"measurement": "solid form after storage at low humidity (XRPD)", "setting": "[4]; open dish, airtight chamber, 25 °C, relative humidity below 10 %, 3 days", "value": "amorphous material"}]}]}
